# According to US8501713B2, “Drug combinations for the treatment of duchenne muscular dystrophy” (Summit Corporation PLC, priority 2007, dated 2013):
# System: Utrophin A promoter linked to a luciferase reporter gene
# Assay: Luciferase reporter assay (murine H2K cells)
# Format: cell-based
# Settings: for activity at 10 µM: Mus musculus, H2K mdx, luciferase level relative to control, H2K/mdx/Utro A reporter cells, compound 10 μM final concentration, read-out: Activity; for Activity: luciferase reporter assay in murine H2K cells, classified relative to control
# Protocol: 1. Luciferase Reporter Assay (Murine H2K Cells)
# The cell line used for the screen is an immortalized mdx mouse H2K cell line that has been stably transfected with a plasmid containing […] fragment of the Utrophin A promoter including the first untranslated exon linked to a luciferase reporter gene. Under conditions of low temperature and interferon containing media, the cells remain as myoblasts. These are plated into 96 well plates and cultured in the presence of compound for three days. The level of luciferase is then determined by cell lysis and reading of the light output from the expressed luciferase gene utilising a plate luminometer.
# H2K/mdx/Utro A reporter Cell Line Maintenance
# The cells were grown at 33° C. in the presence of 10% CO2. To remove the myoblasts for platting, they were incubated with Trypsin EDTA until the monolayer started to detach.
# The plates were then incubated at 33° C. in the presence of 10% CO2 for 24 hrs. Compounds were dosed by adding 10 μl of diluted compound to each well giving a final concentration of 10 μM. The plates were then incubated for a further 48 hrs. Cells were then lysed in situ following the manufacture's protocols (Promega Steady-Glo Luciferase Assay System (E2520). Then counted for 10 seconds using a plate luminometer (Victor1420).
# Compounds for screening were stored at −20° C. as 10 mM stocks in 100% DMSO until required.
# Biological activity as assessed using the luciferase reporter assay in murine H2K cells, and is classified as follows: […]
Compound,activity at 10 µM [%],Activity
"CC(=O)Nc1ccc2oc(-c3ccc4ccccc4c3)nc2c1 [Example 373, N-(2-(naphthalen-2-yl)benzo[d]oxazol-5-yl)acetamide]",> 401,
O=C(COc1ccc2c(c1)OCO2)Nc1nc2ccccc2s1 [Example 614],,+ (Up to 200% relative to control)
"CCCC(=O)Nc1ccc2oc(-c3cccc(Cl)c3)nc2c1 [Example 239, N-(2-(3-chlorophenyl)benzo[d]oxazol-5-yl)butyramide]",< 200,
"Cc1ccc2oc(-c3ccc4ccccc4c3)nc2c1 [Example 458, 5-Methyl-2-(naphthalen-2-yl)benzo[d]oxazole]",> 401,
"Cc1ccc(-c2nc3ccc([N+](=O)[O-])cc3o2)cc1 [Example 190, 6-nitro-2-p-tolylbenzo[d]oxazole]",301 to 400,
"CC(C)NC(=O)Nc1ccc2oc(-c3ccccc3)nc2c1 [Example 241, 1-isopropyl-3-(2-phenylbenzo[d]oxazol-5-yl)urea]",< 200,
"Cc1ccc(-c2nc3cc(Br)ccc3o2)cc1 [Example 198, 5-bromo-2-p-tolylbenzo[d]oxazole]",301 to 400,
c1ccc(NNc2nc3ccccc3s2)cc1 [Example 552],,+ (Up to 200% relative to control)
"CCCC(=O)Nc1cnc2oc(-c3ccccc3)nc2c1 [Example 170, N-(2-phenyloxazolo[5,4-b]pyridin-6-yl)butyramide]",< 200,
"CC(C)C(=O)Nc1ccc2oc(C3CCOCC3)nc2c1 [Example 349, N-(2-(tetrahydro-2H-pyran-4-yl)benzo[d]oxazol-5-yl)isobutyramide]",< 200,
"Nc1ccc2nc(-c3ccc(Cl)c(Cl)c3)oc2c1 [Example 369, 2-(3,4-dichlorophenyl)benzo[d]oxazol-6-amine]",> 401,
Cc1cccc(NC(=O)c2sc3nc(C)cc(C)c3c2N)c1 [Example 650],,+++ (Between 301% and 400% relative to control)
"CCCCC(=O)Nc1ccc2oc(-c3ccc(Cl)cc3)nc2c1 [Example 100, N-(2-(4-chlorophenyl)benzo[d]oxazol-5-yl)pentanamide]",201 to 300,
"CCOC(=O)Nc1ccc2oc(-c3ccc(Cl)cc3)nc2c1 [Example 386, ethyl 2-(4-chlorophenyl)benzo[d]oxazol-5-ylcarbamate]",< 200,
"CC(C)C(=O)Nc1ccc(-c2nc3ccc(Cl)cc3o2)cc1 [Example 333, N-(4-(6-chlorobenzo[d]oxazol-2-yl)phenyl)isobutyramide]",201 to 300,
"CC(C)C(=O)Nc1cc2oc(-c3ccc(Cl)cc3)nc2cc1Cl [Example 347, N-(5-chloro-2-(4-chlorophenyl)benzo[d]oxazol-6-yl)isobutyramide]",201 to 300,
"CC(C)C(=O)Nc1ccc2sc(-c3ccc(Cl)cc3)nc2c1 [Example 277, N-(2-(4-chlorophenyl)benzo[d]thiazol-5-yl)isobutyramide]",301 to 400,
Clc1ccc(SCc2ccc(-c3nc4ccccc4[nH]3)cc2)cc1 [Example 460],,+ (Up to 200% relative to control)
"CCC(=O)N(C)c1ccc2oc(-c3ccc(Cl)cc3)nc2c1 [Example 219, N-(2-(4-chlorophenyl)benzo[d]oxazol-5-yl)-N-methylpropionamide]",301 to 400,
Clc1ccc(OCc2nc3ccccc3n2Cc2ccccc2Cl)c(Cl)c1 [Example 465],,+ (Up to 200% relative to control)
CC(=O)Nc1cccc(-c2nc3ccccc3[nH]2)c1 [Example 503],,+ (Up to 200% relative to control)
Nc1ccc2oc(-c3ccc(Cl)cc3)nc2c1 [Example 488],,++ (Between 201% and 300% relative to control)
"Cc1ccc(-c2nc3cc(N)ccc3o2)cc1 [Example 18, 2-p-tolylbenzo[d]oxazol-5-amine]",< 200,
"CC(c1ccccc1)c1nc2cc(N)ccc2o1 (stereo not drawn) [Example 308, 2-(1-phenylethyl)benzo[d]oxazol-5-amine]",< 200,
Oc1ccc2nc(-c3ccc(Cl)cc3)oc2c1 [Example 579],,++++ (Above 401% relative to control)
"CCS(=O)(=O)c1ccc2oc(-c3ccc(C)cc3)nc2c1 [Example 179, 5-(ethylsulfonyl)-2-p-tolylbenzo[d]oxazole]",> 401,
O=C(Nc1nc2ccccc2s1)c1cc(Br)ccc1Cl [Example 671],,++ (Between 201% and 300% relative to control)

Compound,activity at 10 µM [%],Activity
"Cc1ccccc1-c1nc2cc(N)ccc2o1 [Example 205, 2-o-tolylbenzo[d]oxazol-5-amine]",301 to 400,
COc1ccc(-c2nc3cc(N)ccc3o2)cc1 [Example 512],,+ (Up to 200% relative to control)
"Cc1ccc(-c2nc3cc(NC(=O)c4ccco4)ccc3o2)cc1 [Example 119, N-(2-p-tolylbenzo[d]oxazol-5-yl)furan-2-carboxamide]",< 200,
"CC(=O)Nc1ccc2oc(-c3ccccc3)nc2c1 [Example 8, N-(2-phenylbenzo[d]oxazol-5-yl)acetamide]",201 to 300,
"COc1ccc(-c2nc3cc(NC(C)=O)ccc3o2)cc1 [Example 135, N-(2-(4-methoxyphenyl)benzo[d]oxazol-5-yl)acetamide]",301 to 400,
"Cc1ccc(-c2nc3cc(C)c(C)cc3o2)cc1 [Example 215, 5,6-dimethyl-2-p-tolylbenzo[d]oxazole]",> 401,
"CC(O)c1ccc2oc(-c3ccc(Cl)cc3)nc2c1 (stereo not drawn) [Example 446, 2-(4′-chlorophenyl)-5-(1′-hydroxyethyl)-benzoxazole]",> 401,
"O=C(Nc1ccc2oc(-c3ccc(Cl)cc3)nc2c1)[C@@H]1CCCN1 [Example 362, (S)-N-(2-(4-chlorophenyl)benzo[d]oxazol-5-yl)pyrrolidine-2-carboxamide]",201 to 300,
"CC(C)C(=O)Nc1ccc2oc(-c3cccc(Cl)c3F)nc2c1 [Example 342, N-(2-(3-chloro-2-fluorophenyl)benzo[d]oxazol-5-yl)isobutyramide]",> 401,
"CC(C)(C)c1ccc2oc(-c3ccccc3)nc2c1 [Example 129, 5-tert-butyl-2-phenylbenzo[d]oxazole]",> 401,
"O=C(Nc1ccc2oc(-c3ccccc3)nc2c1)c1ccc(F)cc1 [Example 31, 4-fluoro-N-(2-phenylbenzo[d]oxazol-5-yl)benzamide]",< 200,
"CCS(=O)(=O)c1ccc2oc(-c3ccc4c(c3)OC(F)(F)O4)nc2c1 [Example 438, 2-(2,2-difluorobenzo[d][1,3]dioxol-5-yl)-5-(ethylsulfonyl)benzo[d]oxazole]",< 200,
"O=C(Nc1ccc2oc(-c3cccnc3)nc2c1)c1ccc(Cl)cc1 [Example 40, 4-chloro-N-(2-(pyridin-3-yl)benzo[d]oxazol-5-yl)benzamide]",< 200,
Cc1cc2nc(-c3cccc(NC(=O)c4ccco4)c3)oc2cc1C [Example 623],,++++ (Above 401% relative to control)
"CC(C)C(=O)Nc1ccc2nc(-c3ccc(Cl)c(Cl)c3)oc2c1 [Example 370, N-(2-(3,4-dichlorophenyl)benzo[d]oxazol-6-yl)isobutyramide]",> 401,
"Nc1ccc(-c2nc3cc(Br)ccc3o2)cc1 [Example 336, 4-(5-bromobenzo[d]oxazol-2-yl)aniline]",> 401,
"CC(C)C(=O)Nc1ccc2cc(-c3ccccc3)n(C)c2c1 [Example 389, N-(1-methyl-2-phenyl-1H-indol-6-yl)isobutyramide]",< 200,
"O=C(Nc1ccc2oc(-c3ccc(F)cc3)nc2c1)c1ccco1 [Example 2, N-(2-(4-fluorophenyl)benzo[d]oxazol-5-yl)furan-2-carboxamide]",< 200,
"O=C(Nc1ccc2oc(-c3cccnc3)nc2c1)c1ccc(F)cc1 [Example 48, 4-fluoro-N-(2-(pyridin-3-yl)benzo[d]oxazol-5-yl)benzamide]",< 200,
"CCCC(=O)Nc1ccc2oc(Cc3ccccc3)nc2c1 [Example 227, N-(2-benzylbenzo[d]oxazol-5-yl)butyramide]",< 200,
COc1ccc(-c2nc3cc([N+](=O)[O-])ccc3o2)cc1OC [Example 537],,+ (Up to 200% relative to control)
"O=C(CC(F)(F)F)Nc1ccc2oc(-c3cccc(Cl)c3Cl)nc2c1 [Example 363, N-(2-(2,3-dichlorophenyl)benzo[d]oxazol-5-yl)-3,3,3-trifluoropropanamide]",> 401,
"CCN(CC)c1ccc(-c2nc3cc(NC(=O)c4ccc(N(C)C)cc4)ccc3o2)cc1 [Example 67, N-(2-(4-(diethylamino)phenyl)benzo[d]oxazol-5-yl)-4-(dimethylamino)benzamide]",201 to 300,
O=C(Nc1ccccc1-c1nc2ccccc2[nH]1)c1ccc(S(=O)(=O)N2CCCC2)cc1 [Example 511],,+ (Up to 200% relative to control)
Cc1ccc2nc(-c3ccc(C(F)(F)F)cc3)oc2c1 [Example 611],,+++ (Between 301% and 400% relative to control)
COc1ccc(-c2nc3cc(C)ccc3o2)cc1 [Example 675],,++ (Between 201% and 300% relative to control)
COc1ccc(-c2nc3ccccc3o2)cc1 [Example 583],,+++ (Between 301% and 400% relative to control)
